From US20050239656A1, “Pyridine compounds or salts thereof and herbicides containing the same” (priority 2002, published 2005)

Columns and labels:
[1] = system: barnyardgrass; assay: Test Example 2: soil surface treatment, upland pot test; type: in vivo, Echinochloa crus-galli L.; settings: active ingredient 500 g/ha, observed 20th to 28th day
From the text: (§1) Upland field soil was put into a 1/170,000 ha pot, and seed of various plants (barnyardgrass, crabgrass, green foxtail, redroot pigweed, prickly sida, velvetleaf, rice, wheat, corn, soybean) were sown. On the 1st day after the sowing, a wettable powder or emulsifiable concentrate having the compound of the present invention formulated in accordance with a usual formulation method, was weighed so that the active ingredient would be a predetermined amount, and diluted with water in an amount of 1,500 L/ha. The herbicide thus adjusted was applied by a small size sprayer for soil surface treatment. On the 20th to 28th days after the application of the herbicide, the growth of the respective plants was visually observed, and the herbicidal effects were evaluated by the growth controlling degrees (%) ranging from 0 (equivalent to the non-treated plot) to 100 (complete kill), whereby the results shown in Table 4, were obtained.

[2] = system: crabgrass; assay: as above; type: in vivo, Digitaria sanguinalis L.; settings: active ingredient 500 g/ha, observed 20th to 28th day
From the text: as §1

[3] = system: green foxtail; assay: as above; type: in vivo, Setaria viridis L.; settings: active ingredient 500 g/ha, observed 20th to 28th day
From the text: as §1

[4] = system: redroot pigweed; assay: as above; type: in vivo, Amaranthus retroflexus L.; settings: active ingredient 500 g/ha, observed 20th to 28th day
From the text: as §1

[5] = system: prickly sida; assay: as above; type: in vivo, Sida spinosa L.; settings: active ingredient 500 g/ha, observed 20th to 28th day
From the text: as §1

[6] = system: velvetleaf; assay: as above; type: in vivo, Abutilon theophrasti MEDIC.; settings: active ingredient 500 g/ha, observed 20th to 28th day
From the text: as §1

[7] = system: rice; assay: as above; type: in vivo, Oryza sativa L.; settings: active ingredient 500 g/ha, observed 20th to 28th day
From the text: as §1

[8] = system: corn; assay: as above; type: in vivo, Zea mays L.; settings: active ingredient 500 g/ha, observed 20th to 28th day
From the text: as §1

[9] = system: soybean; assay: as above; type: in vivo, Glycine max Merr.; settings: active ingredient 500 g/ha, observed 20th to 28th day
From the text: as §1

[10] = system: barnyardgrass; assay: Test Example 3: paddy pot test, application under submerged conditions; type: in vivo, Echinochloa crus-galli L.; settings: submerged application at 0.5 leaf stage, visually observed 14 days after application, 0 = non-treated, 100 = complete kill
In short: (§2)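 After sowing seeds and planting wapato tubers in flooded paddy soil, an aqueous dilution of the formulated compound was added to the 3–4 cm flood water at early leaf stage. Percent growth control relative to the untreated plot was assessed visually on day 14.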

[11] = system: japanese bulrush; assay: as above; type: in vivo, Scirpus juncoides; settings: submerged application at 0.5 leaf stage, visually observed 14 days after application, 0 = non-treated, 100 = complete kill
In short: as §2

[12] = system: japanese ribbon wapato; assay: as above; type: in vivo, Sagittaria pygniaea; settings: submerged application at primary leaf stage, visually observed 14 days after application, 0 = non-treated, 100 = complete kill
In short: as §2

[13] = system: rice (var. Nihonbare); assay: Test Example 3: paddy pot test, transplanted rice; type: in vivo, Oryza sativa L.; settings: applied 4th day after transplantation, visually observed 21st day after application, 0 = non-treated, 100 = complete kill
In short: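 Rice (2-leaf stage) was transplanted 3 cm deep into puddled, leveled paddy soil under 3–4 cm flooding. On day 4 after transplanting, diluted wettable powder or emulsifiable concentrate was pipetted onto the water at a predetermined active-ingredient dose. Growth control (0 = untreated, 100 = complete kill) was scored visually 21 days later.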

Compound	Growth controlling degree (%) Barnyardgrass [1] [%]	Growth controlling degree (%) Crabgrass [2] [%]	Growth controlling degree (%) Green foxtail [3] [%]	Growth controlling degree (%) Redroot pigweed [4] [%]	Growth controlling degree (%) Prickly sida [5] [%]	Growth controlling degree (%) Velvetleaf [6] [%]	Growth controlling degree (%) Rice [7] [%]	Growth controlling degree (%) Corn [8] [%]	Growth controlling degree (%) Soyabean [9] [%]	Growth controlling degree (%) Barnyardgrass ([10]; active ingredient 125 g/ha) [%]	Growth controlling degree (%) Japanese bulrush ([11]; active ingredient 125 g/ha) [%]	Growth controlling degree (%) Japanese ribbon wapato ([12]; active ingredient 125 g/ha) [%]	Growth controlling degree (%) Rice ([13]; active ingredient 125 g/ha) [%]	Growth controlling degree (%) Barnyardgrass ([10]; active ingredient 250 g/ha) [%]	Growth controlling degree (%) Japanese bulrush ([11]; active ingredient 250 g/ha) [%]	Growth controlling degree (%) Japanese ribbon wapato ([12]; active ingredient 250 g/ha) [%]	Growth controlling degree (%) Rice ([13]; active ingredient 250 g/ha) [%]
Cc1ccc(CC(=O)N(C)C(c2cnccc2C(F)(F)F)C(C)C)c(F)c1 (racemic) [I-109]	0	98	70	70	0	0	20	10	0	95	90	60	0	–	–	–	–
CCN(C(=O)Cc1ccc(C(F)(F)F)cc1)C(c1cnccc1C(F)(F)F)C(C)C (centres unmarked) [Compound I-79]	100	100	100	80	100	80	10	10	10	–	–	–	–	100	70	40	20
CC(C)C(c1cnccc1Cl)N(C)C(=O)Cc1ccccc1Cl (centres unmarked) [Compound I-81]	98	90	70	70	10	0	0	0	0	–	–	–	–	98	95	0	10
CC(C)C(c1cnccc1Cl)N(C)C(=O)COc1ccccc1 (centres unmarked) [Compound I-84]	80	70	30	50	0	0	20	20	0	–	–	–	–	98	98	20	0
CC(C)C(c1cnccc1C(F)(F)F)N(C)C(=O)Cc1cc(C(F)(F)F)ccc1F (centres unmarked) [Compound I-96]	60	85	100	80	70	50	10	20	20	–	–	–	–	100	100	0	30
